How the values were obtained:
GLP-1 receptor = target: T1, GLP-1 receptor (Homo sapiens, UniProt P43220); experiment: cAMP experiment, GLP-1 receptor (HEK293 host cell line); assay type: cell-based; settings: HEK293 host cells
T1 construct: expressed in transfected cells; host or cells: HEK293 cell line

GIP receptor = target: T2, GIP receptor (Homo sapiens, UniProt P48546); experiment: cAMP experiment, GIP receptor (CHO host cell line); assay type: cell-based; settings: CHO host cells
T2 construct: expressed in transfected cells; host or cells: CHO cell line
T2 sequence (P48546 22-466): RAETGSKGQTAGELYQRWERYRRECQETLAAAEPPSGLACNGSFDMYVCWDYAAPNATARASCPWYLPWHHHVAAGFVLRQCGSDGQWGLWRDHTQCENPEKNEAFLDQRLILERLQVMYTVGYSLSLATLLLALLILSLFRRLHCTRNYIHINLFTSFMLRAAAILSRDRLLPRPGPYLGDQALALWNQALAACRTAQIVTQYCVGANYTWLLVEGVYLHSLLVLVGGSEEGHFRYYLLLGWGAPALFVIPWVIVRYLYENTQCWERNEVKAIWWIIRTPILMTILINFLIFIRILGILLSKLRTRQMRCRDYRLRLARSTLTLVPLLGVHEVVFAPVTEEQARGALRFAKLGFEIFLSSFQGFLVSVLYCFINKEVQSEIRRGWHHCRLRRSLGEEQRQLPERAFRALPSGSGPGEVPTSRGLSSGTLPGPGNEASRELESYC

T1 sequence (P43220 24-463, species assumed): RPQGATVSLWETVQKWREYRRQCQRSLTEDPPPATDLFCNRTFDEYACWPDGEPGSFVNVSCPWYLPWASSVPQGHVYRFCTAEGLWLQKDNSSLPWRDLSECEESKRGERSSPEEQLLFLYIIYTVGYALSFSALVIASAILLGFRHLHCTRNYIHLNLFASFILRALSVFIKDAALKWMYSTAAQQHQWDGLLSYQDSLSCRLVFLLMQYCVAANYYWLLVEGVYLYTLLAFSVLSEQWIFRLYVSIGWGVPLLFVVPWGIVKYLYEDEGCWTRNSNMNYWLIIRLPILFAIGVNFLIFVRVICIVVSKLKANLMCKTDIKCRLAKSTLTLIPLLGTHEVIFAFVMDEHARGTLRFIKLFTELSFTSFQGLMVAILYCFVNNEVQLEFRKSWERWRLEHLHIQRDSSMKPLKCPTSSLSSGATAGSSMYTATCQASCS

## CC[C@H](C)[C@H](NC(=O)[C@H](CC(C)C)NC(=O)[C@H](Cc1c[nH]c2ccccc12)NC(=O)[C@H](CCC(N)=O)NC(=O)[C@@H](NC(=O)[C@H](Cc1ccccc1)NC(=O)[C@H](C)NC(=O)[C@H](CCCCN)NC(=O)[C@H](CCC(N)=O)NC(=O)[C@H](C)NC(=O)[C@@H](NC(=O)[C@H](CCCCNC(=O)COCCOCCOCCNC(=O)COCCOCCOCCNC(=O)CC[C@H](NC(=O)CCCCCCCCCCCCCCCCCCC(=O)O)C(=O)O)NC(=O)[C@H](CC(=O)O)NC(=O)[C@H](CC(C)C)NC(=O)C(C)(C)NC(=O)[C@@H](NC(=O)[C@H](CO)NC(=O)[C@H](Cc1ccc(O)cc1)NC(=O)[C@H](CC(=O)O)NC(=O)[C@H](CO)NC(=O)[C@@H](NC(=O)[C@H](Cc1ccccc1)NC(=O)[C@@H](NC(=O)CNC(=O)[C@H](CCC(=O)O)NC(=O)C(C)(C)NC(=O)[C@@H](N)Cc1ccc(O)cc1)[C@@H](C)O)[C@@H](C)O)[C@@H](C)CC)[C@@H](C)CC)C(C)C)C(=O)N[C@@H](C)C(=O)NCC(=O)NCC(=O)N1CCC[C@H]1C(=O)N[C@@H](CO)C(=O)N[C@@H](CO)C(=O)NCC(=O)N[C@@H](C)C(=O)N1CCC[C@H]1C(=O)N1CCC[C@H]1C(=O)N1CCC[C@H]1C(=O)N[C@@H](CO)C(N)=O [BGM125, reference compound]
GLP-1 receptor
  EC50: 0.0692 nM
GIP receptor
  EC50: 0.684 nM
